Results from US11976083B2, “Inhibitors of peptidylarginine deiminases” (Gilead Sciences, Inc., priority 2020, dated 2024).

Target: T1, human PAD4 (Homo sapiens, UniProt Q9UM07)
T1 construct: human PAD4 (NM_012387), A2-P663, was PCR amplified; His-SUMO (N, cleaved yes); made in house; host or cells: E. coli BL21(DE3)
Experiment: In vitro PAD4 BAEE biochemical assay
Details: BAEE substrate 3 mM, 5 nM PAD4, 2 mM calcium chloride; geometric mean of multiple experiments
Outline: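 PAD4 5 nM, CaCl2 2 mM, BAEE 3 mM final; 50 mM MOPS pH 7.6, 50 mM NaCl, 0.05% Tween-20, 2 mM DTT. Cpd + enzyme 30 min 25 °C; substrate 2 h 25 °C; EDTA stop; OPA detection 1 h. IC50 4-parameter fit.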

T1 sequence (Q9UM07 2-663): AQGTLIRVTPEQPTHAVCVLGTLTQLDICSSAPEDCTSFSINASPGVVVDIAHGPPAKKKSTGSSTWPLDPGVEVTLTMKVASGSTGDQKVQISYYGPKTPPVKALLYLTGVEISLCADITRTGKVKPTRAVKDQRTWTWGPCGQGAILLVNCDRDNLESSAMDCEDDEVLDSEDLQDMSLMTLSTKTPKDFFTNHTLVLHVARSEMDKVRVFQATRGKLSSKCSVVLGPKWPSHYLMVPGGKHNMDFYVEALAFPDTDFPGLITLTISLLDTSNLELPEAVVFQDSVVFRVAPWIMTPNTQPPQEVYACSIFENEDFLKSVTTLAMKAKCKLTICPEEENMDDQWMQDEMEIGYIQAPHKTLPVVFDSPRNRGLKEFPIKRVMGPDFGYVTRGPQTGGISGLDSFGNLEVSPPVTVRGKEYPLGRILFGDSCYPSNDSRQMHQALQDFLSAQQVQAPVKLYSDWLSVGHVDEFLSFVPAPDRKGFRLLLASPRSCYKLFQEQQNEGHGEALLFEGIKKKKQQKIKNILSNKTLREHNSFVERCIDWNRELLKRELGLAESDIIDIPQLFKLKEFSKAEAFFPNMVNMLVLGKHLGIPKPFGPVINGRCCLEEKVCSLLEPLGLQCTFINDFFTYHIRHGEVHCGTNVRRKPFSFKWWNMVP

Row | IC50 | SMILES
1 | 39 nM | COc1cc(C(=O)N2[C@H]3CC[C@@H]2[C@H](N)C3)cc2nc(-c3cc4ccc5cc4n3CCCCCC[C@](C)(OC)C(=O)N[C@@H]5C)n(C)c12 [Example 339, (8~{S),11~{R})-17-[5-[(1~{R},2~{R},4~{S})-2-amino-7-azabicyclo[2.2.1]heptane-7-carbonyl]-7-methoxy-1-methyl-benzimidazol-2-yl]-8-methoxy-8,11-dimethyl-1,10-diazatricyclo[10.5.2.0^{15,18}]nonadeca-12(19),13,15(18),16-tetraen-9-one]
2 | 47 nM | COc1cc(C(=O)N2CCC[C@@H](N)C2)cc2nc(-c3cc4ccc5nc4n3CCCCCCCN(C)C(=O)N[C@@H]5C)c(C)n12 [Example 146, (12~{R})-18-[7-[(3~{R})-3-aminopiperidine-1-carbonyl]-5-methoxy-3-methyl-imidazo[1,2-a]pyridin-2-yl]-9,12-dimethyl-1,9,11,20-tetrazatricyclo[11.5.2.0^{16,19}]icosa-13(20),14,16(19),17-tetraen-10-one]
3 | 56 nM | COc1cc(C(=O)N2CCC[C@@H](N)C2)cc2nc(-c3cc4ccc5cc4n3CCCCCOC(C)(C)C(=O)N[C@@H]5C)n(C)c12 [Example 156, (11~{R})-17-[5-[(3~{R})-3-aminopiperidine-1-carbonyl]-7-methoxy-1-methyl-benzimidazol-2-yl]-8,8,11-trimethyl-7-oxa-1,10-diazatricyclo[10.5.2.0^{15,18}]nonadeca-12(19),13,15(18),16-tetraen-9-one]
4 | 82 nM | COc1cc(C(=O)N2C[C@H](N)[C@@H]3CC[C@H]2C3)cc2nc(-c3cc4ccc5nc4n3CCCCCCCN(C(C)=O)[C@@H]5C)n(C)c12 [Example 907]
5 | 61 nM | C[C@H]1NC(=O)c2c(C3CC3)cc(Cl)nc2CCCCCn2c(-c3nc4cc(C(=O)N5C[C@H](N)[C@@H]6CC[C@H]5C6)cc(F)c4n3C3CC3)cc3ccc1nc32 [Example 911, (2~{R})-17-[5-[(1~{S},4~{R}, 5~{R})-4-amino-2-azabicyclo[3.2.1]octane-2-carbonyl]-1-cyclopropyl-7-fluoro-benzimidazol-2-yl]-8-chloro-6-cyclopropyl-2-methyl-3,9,16,22-tetrazatetracyclo[14.5.2.0^ {5,10}.0^{19,23}]tricosa-1(22),5(10),6,8,17,19(23),20-heptaen-4-one]
6 | 27 nM | COc1cc(C(=O)N2C[C@H](N)[C@@H]3CC[C@H]2C3)cc2nc(-c3cc4ccc5nc4n3CCCCCc3ccccc3C(=O)N[C@@H]5C)n(C3CC3)c12 [Example 673, (2~{R})-17-[5-[(1~{S},4~ {R},5~{R})-4-amino-2-azabicyclo[3.2.1]octane-2-carbonyl]-1-cyclopropyl-7-methoxy-benzimidazol-2-yl]-2-methyl-3,16,22-triazatetracyclo[14.5.2.0^ {5,10}.0^{19,23}] tricosa-1(22),5(10),6,8, 17,19(23),20-heptaen-4-one]
7 | 25 nM | C[C@H]1NC(=O)c2cnc(Cl)cc2CCCCCn2c(-c3nc4cc(C(=O)N5C[C@H](N)[C@@H]6CC[C@H]5C6)cc(F)c4n3C3CC3)cc3ccc1nc32 [Example 810, (2~{R})-17-[5-[(1~{S),4~{R},5~ {R})-4-amino-2-azabicyclo [3.2.1]octane-2-carbonyl]-1-cyclopropyl-7-fluoro-benzimidazol-2-yl]-8-chloro-2-methyl-3,7,16,22-tetrazatetracyclo[14.5.2.0^ {5,10}.0^{19,23}] tricosa-1(21),5(10),6,8,17,19, 22-heptaen-4-one]
8 | 125 nM | COc1cc(C(=O)N[C@@H]2CC[C@H](C)NC2)cc2nc(-c3cc4ccc5nc4n3CCCCCCC(C)(C)C(=O)N[C@@H]5C)n(C)c12 [Example 73, 7-methoxy-1-methyl-~{N}-[(3~{R},6~{S})-6-methyl-3-piperidyl]-2-[(11~{R})-8,8,11-trimethyl-9-oxo-1,10,19-triazatricyclo[10.5.2.0^{15,18}]nonadeca-12(19),13,15(18),16-tetraen-17-yl]benzimidazole-5-carboxamide]
9 | 283 nM | COc1cc(C(=O)N2CCC[C@@H](N)C2)cc2nc(-c3cc4ccc5cc4n3CCCCCCC(C)(C)C(=O)Nc3ncccc3-5)n(C)c12 [Example 53, 18-[5-[(3~{R})-3-aminopiperidine-1-carbonyl]-7-methoxy-1-methyl-benzimidazol-2-yl]-10,10-dimethyl-6,8,17-triazatetracyclo[15.5.2.0^{2,7}.0^{20,24}] tetracosa-1(23),2,4,6,18,20(24),21-heptaen-9-one]
10 | 17 nM | C[C@H]1NC(=O)[C@@H]2C[C@H]2CCCCCn2c(-c3nc4cc(C(=O)N5C[C@H](N)[C@@H]6CC[C@H]5C6)cc(OC(F)F)c4n3C3CC3)cc3ccc1nc32 [Example 759, (2~{R},5~{R},7~{R})-14-[5-[(1~{S},4~{R},5~{R})-4-amino-2-azabicyclo[3.2.1]octane-2-carbonyl]-1-cyclopropyl-7-(difluoromethoxy)benzimidazol-2-yl]-2-methyl-3,13,19-triazatetracyclo[11.5.2.0^ {5,7}.0^{16,20}]icosa-1(19), 14,16(20),17-tetraen-4-one]
11 | 84 nM | COc1cc(C(=O)N2CCC[C@@H](N)C2)cc2nc(-c3cc4ccc5nc4n3CCCCCCC(=O)N[C@@H]5C)n(C3CC3)c12 [Example 231, (10~{R})-16-[5-[(3~{R})-3-aminopiperidine-1-carbonyl]-1-cyclopropyl-7-methoxy-benzimidazol-2-yl]-10-methyl-1,9,18-triazatricyclo[9.5.2.0^{14,17}]octadeca-11(18),12,14(17),15-tetraen-8-one]
12 | 97 nM | C[C@H]1NC(=O)C(C)(C)CCCCCCn2c(-c3nc4cc(C(=O)N[C@H]5CNCC[C@@H]5F)c(F)cc4n3C3C[C@@H]3F)cc3ccc1nc32 (stereo partly shown) [Example 602, (1~{R})-6-fluoro-1-[(2~{S})-2-fluorocyclopropyl]-~{N}-[(3~{S},4~{S})-4-fluoro-3-piperidyl]-2-[(11~{R})-8,8,11-trimethyl-9-oxo-1,10,19-triazatricyclo [10.5.2.0^{15,18}]nonadeca-12,14,16,18-tetraen-17-yl]benzimidazole-5-carboxamide]
13 | 39 nM | COc1cc(C(=O)N2[C@H]3CC[C@@H]2[C@H](N)C3)cc2nc(-c3cc4ccc5nc4n3CCCCCCCC(=O)N[C@@H]5C(F)(F)F)n(C)c12 [Example 258, (11~{S})-17-[5-[(1~{R},2~{R},4~{S})-2-amino-7-azabicyclo[2.2.1]heptane-7-carbonyl]-7-methoxy-1-methyl-benzimidazol-2-yl]-11-(trifluoromethyl)-1,10,19-triazatricyclo[10.5.2.0^{15,18}]nonadeca-12(19),13,15(18),16-tetraen-9-one]
14 | 46 nM | COc1cc(C(=O)N2CCC[C@@H](N)C2)cc2nc(-c3cc4ccc5nc4n3CCCCCc3ccccc3C(=O)N[C@@H]5C)n(C)c12 [Example 28, (2~{R})-17-[5-[(3~{R})-3-aminopiperidine-1-carbonyl]-7-methoxy-1-methyl-benzimidazol-2-yl]-2-methyl-3,16,22-triazatetracyclo[14.5.2.0^{5,10}.0^{19,23}] tricosa-1(22),5,7,9,17,19(23),20-heptaen-4-one]
15 | 70 nM | COc1cc(C(=O)N2CCC[C@@H](N)C2)cc2nc(-c3cc4ccc5nc4n3C[C@H]3C[C@H]3COCCC(=O)N[C@@H]5C)n(C)c12 [Example 304, (3~{S),5~{R},12~{R})-18-[5-[(3~{R})-3-aminopiperidine-1-carbonyl]-7-methoxy-1-methyl-benzimidazol-2-yl]-12-methyl-7-oxa-1,11,20-triazatetracyclo[11.5.2.0^{3,5}.0^{16,19}] icosa-13(20),14,16(19),17-tetraen-10-one]
16 | 87 nM | COc1cc(C(=O)N2CCC[C@@H](N)C2)cc2nc(-c3cc4ccc5nc4n3CCCCCCCC(=O)NC5C(F)F)n(C)c12 (stereo partly shown) [Example 238, 17-[5-[(3~{R})-3-aminopiperidine-1-carbonyl]-7-methoxy-1-methyl-benzimidazol-2-yl]-11-(difluoromethyl)-1,10,19-triazatricyclo[10.5.2.0^{15,18}]nonadeca-12(19),13,15(18),16-tetraen-9-one]
17 | 32 nM | COc1cc(C(=O)N2[C@H]3CC[C@@H]2[C@H](N)C3)cc2nc(-c3cc4ccc5cc4n3CCCCCCC3(CC3)C(=O)N[C@@H]5C)n(C)c12 [Example 221, (11~{R})-17-[5-[(1~{R},2~{R},4~{S})-2-amino-7-azabicyclo[2.2.1]heptane-7-carbonyl]-7-methoxy-1-methyl-benzimidazol-2-yl]-11-methyl-spiro[1,10-diazatricyclo[10.5.2.0^{15,18}]nonadeca-12(19),13,15(18),16-tetraene-8,1′-cyclopropane]-9-one]
18 | 25 nM | COc1cc(C(=O)N2[C@H]3CC[C@@H]2[C@H](N)C3)cc2nc(-c3cc4ccc5nc4n3CCCCCC(C)(C)C(=O)N[C@@H]5C)c(C)n12 [Example 126, (10~{R})-16-[7-[(1~{R},2~{R},4~{S})-2-amino-7-azabicyclo[2.2.1]heptane-7-carbonyl]-5-methoxy-3-methyl-imidazo[1,2-a]pyridin-2-yl]-7,7,10-trimethyl-1,9,18-triazatricyclo[9.5.2.0^{14,17}]octadeca-11(18),12,14(17),15-tetraen-8-one]
19 | 63 nM | COc1cc(C(=O)N2CC[C@@H](OC)[C@@H](N)C2)cc2nc(-c3cc4ccc5nc4n3CCCCC[C@@H]3C[C@H]3C(=O)NC5(C)C)n(C)c12 [Example 782, (5˜{R},7˜{R})-14-[5-[(3˜{S},4˜{R})-3-amino-4-methoxy-piperidine-1-carbonyl]-7-methoxy-1-methyl-benzimidazol-2-yl]-2,2-dimethyl-3,13,19-triazatetracyclo[11.5.2.0^{5,7}.0^{16,20}]icosa-1(18),14,16,19-tetraen-4-one]
